Measurements taken from PMC6480586, “Intestinal Permeability Study of Clinically Relevant Formulations of Silibinin in Caco-2 Cell Monolayers” (International Journal of Molecular Sciences, 2019).

How the values were obtained:
[1] = Caco-2 cell monolayer transport (permeability) study; assay type: in vitro ADME; conditions: human, formulations at 200 µg/mL in HBSS/0.6% DMSO, pH 7.4, 37 °C, up to 120 min, n = 6; for Papp A→B at 120 min, 200 µg/mL: apical to basolateral
Experimental: Caco-2 cells were seeded at a density of 1 × 10^5 onto Transwell 6-well inserts with a polyethylene terephthalate membrane (0.4 µm pore size; BD Falcon) and were maintained at 37 °C under 90% humidity and 5% CO2. The medium was replaced every two to three days for both the AP and BL chambers. Cell monolayers were used 19–21 days after seeding, once confluence and differentiation were achieved. The integrity of each cell monolayer was assessed by measuring the TEER before and after the experiments with an epithelial voltammeter (Millicell-ERS). Permeability studies were performed by adding the silibinin formulations at 200 µg/mL in HBSS/0.6% DMSO (stocks were prepared at 30 mg/mL in 100% DMSO) and, in parallel, standard silibinin at different concentrations (10, 20, 50, 100, 150, 200, and 300 µmol/L).
The transport experiment was initiated by removing the culture medium from the AP and BL chambers. The Caco-2 monolayers were washed twice with pre-warmed HBSS (pH 7.4) and incubated with the same solution at 37 °C for 30 min. […]
Transport studies were performed from apical-to-basolateral (AP–BL) and basolateral-to-apical (BL–AP) chambers. The apparent permeability (Papp) values for each compound were calculated according to the following equation: Papp=dQ/dt·1/A·C0·60 where Papp is the apparent permeability (cm/s), dQ/dt is the steady-state flux, A is the diffusion area of the monolayers (cm^2), C0 is the initial concentration of the drug in the donor compartment (µM), and 60 is a conversion factor [49].
The efflux ratio was calculated to determine the absorption mechanism such as the ratio of Papp (BL–AP) […] Papp (AP–BL).
Analyses were performed using an Agilent LC 1100 series HPLC system (Agilent Technologies, Inc., Palo Alto, CA) controlled by Chemstation software, equipped with a pump, autosampler, column oven, and UV–VIS diode array detector (wavelength selected at 280 nm to detect silibinin). […] A calibration graph for the quantitative evaluation of silibinin was performed using a six-point regression curve (r^2 > 0.999).

[2] = cited from earlier work

Papp A→B at 120 min, 200 µg/mL [1]	Papp B→A at 120 min, 200 µg/mL ([1]; basolateral to apical)	Structure (SMILES)	Solubility in polar aprotic solvents ([2]; e.g., acetone, DMF, THF)	Solubility in non-polar solvents ([2]; e.g., chloroform and petroleum ether)	Solubility in polar protic solvents ([2]; e.g., ethanol and methanol)	Solubility in water ([2]; water)	Water solubility ([2]; water)
600 nm/s	–	COCCc1ccc(OCC(O)CNC(C)C)cc1 (centres unmarked) [metroprolol, metoprolol]	–	–	–	–	–
32 nm/s	62.8 nm/s	COc1cc(C2Oc3cc([C@H]4Oc5cc(O)cc(O)c5C(=O)[C@@H]4O)ccc3OC2CO)ccc1O (some centres unmarked) [silibinin]	soluble	insoluble	poorly soluble	very poor solubility in water	< 0.04 mg/mL
